This note sets out measurements from patent EP0497091A1, “Bridged cyclic ketal derivatives” (GLAXO GROUP LIMITED, priority 1991, dated 1992).

This assay deals with T1, squalene synthase (Rattus norvegicus, UniProt Q02769).
T1 construct: from tissue; host or cells: rat liver homogenate
T1 sequence (Q02769 1-416): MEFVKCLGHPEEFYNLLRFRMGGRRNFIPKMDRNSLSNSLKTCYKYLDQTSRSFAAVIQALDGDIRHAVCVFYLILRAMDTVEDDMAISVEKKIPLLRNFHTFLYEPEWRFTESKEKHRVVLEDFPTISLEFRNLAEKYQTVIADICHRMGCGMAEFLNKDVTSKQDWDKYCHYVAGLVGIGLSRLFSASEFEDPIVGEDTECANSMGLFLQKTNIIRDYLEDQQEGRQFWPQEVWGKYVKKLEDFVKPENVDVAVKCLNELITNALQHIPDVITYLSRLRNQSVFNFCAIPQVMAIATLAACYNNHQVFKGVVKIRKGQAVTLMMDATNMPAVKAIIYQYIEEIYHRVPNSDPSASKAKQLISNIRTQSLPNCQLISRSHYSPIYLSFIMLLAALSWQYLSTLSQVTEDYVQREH
The assay is described as follows: Inhibition of squalene synthase ([14C]squalene production from [2-14C]farnesylpyrophosphate). Type of assay: biochemical. An excerpt:
A. Biller et al. in J. […] [¹⁴C]squalene is separated from unreacted substrate on thin layer chromatography plates and determined by liquid scintillation counting. […] Acta, Volume 877, 50-60 (1986) and modified to include measurement of cholesterol by high performance liquid chromatography (h.p.l.c.). […] A. […] [¹⁴C] Squalene was separated from unreacted substrate on thin layer chromatography plates and determined by liquid scintillation counting. Inhibition of squalene synthase was quantified by incubating rat liver homogenate with various concentrations of the test compound in the presence of [2-¹⁴C] farnesylpyrophosphate. The concentration of compound giving 50% inhibition of [¹⁴C] squalene production in a 30 minute assay was taken as the IC₅₀ value.

Structures can show the parent of a compound that is named as a salt. Where two headings read alike, the source gives them in different places.

Regarding `C=C(CC[C@]12O[C@H](C(=O)O)[C@@](O)(C(=O)O)[C@](C(=O)O)(O1)[C@H](OC(=O)OC)[C@H]2O)[C@@H](OC(C)=O)[C@H](C)Cc1ccccc1` (relative stereo) [Example 56, [1S-[1α(4R*,5S*),3α,4β,5α,6α,7β]] 1-(4-Acetyloxy-5-methyl-3-methylene-6-phenylhexyl)-4,7-dihydroxy-6-[(methoxycarbonyl)oxy]-2,8-dioxabicyclo[3.2.1]octane-3,4,5-tricarboxylic acid], the IC50 is < 0.1 µM.

As to `CCC(C)CC(C)CCC(=O)OC1C(O)C2(CCC(C)C(=O)C(C)Cc3ccccc3)OC(C(=O)O)C(O)(C(=O)O)C1(C(=O)O)O2` (single isomer, unassigned; isomer 1) [isomer 1 in Example 16, [1S-[1α(3R*(S*),5S*),3α,4β,5α,6α(4S*,6R*),7β]] 1-(3,5-Dimethyl-4-oxo-6-phenylhexyl)-4,6,7-trihydroxy-2,8-dioxabicyclo[3.2.1]octane-3,4,5-tricarboxylic acid, 6-(4,6-dimethyloctanoate), 3,4,5-tripotassium salt], the IC50 (rat liver homogenate, [2-¹⁴C] farnesylpyrophosphate as substrate, 50% inhibition of [¹⁴C] squalene production in a 30 minute assay, read-out: IC₅₀) is < 0.1 µM.

With `C=C(CC[C@]12O[C@H](C(=O)O)[C@@](O)(C(=O)O)[C@](C(=O)O)(O1)[C@H](OC(=O)OCCCC)[C@H]2O)[C@@H](OC(C)=O)[C@H](C)Cc1ccccc1` (relative stereo) [Example 60, [1S-[1α(4R*,5S*)3α,4β,5α,6α,7β]] 1-(4-Acetyloxy-5-methyl-3-methylene-6-phenylhexyl)-6-[(butoxycarbonyl)oxy]-4,7-dihydroxy-2,8-dioxabicyclo[3.2.1]octane-3,4,5-tricarboxylic acid], the IC50 is < 0.1 µM.

Turning to `CCC(C)CC(C)CCC(=O)OC1C(O)C2(CCC(=O)C(O)C(C)Cc3ccccc3)OC(C(=O)O)C(O)(C(=O)O)C1(C(=O)O)O2` (stereo not drawn) [Example 17, [1S-[1α(4R*,5S*),3α,4β,5α,6α(4S*,6R*),7β]] 1-(4-Hydroxy-5-methyl-3-oxo-6-phenylhexyl)-4,6,7-trihydroxy-2,8-dioxobicyclo[3.2.1]octane-3,4,5-tricarboxylic acid, 6-(4,6-dimethyloctanoate)], the IC50 is < 0.1 µM.

Consider `C=C(CC[C@]12O[C@H](C(=O)O)[C@@](O)(C(=O)O)[C@](C(=O)O)(O1)[C@H](OC(=O)C1CCCCC1)[C@H]2O)[C@@H](OC(C)=O)[C@H](C)Cc1ccccc1` (relative stereo) [Example 43, [1S-[1α(4R*,5S*),3α,4β,5α,6α,7β]] 1-(4-Acetyloxy-5-methyl-3-methylene-6-phenylhexyl)-4,6,7-trihydroxy-2,8-dioxabicyclo[3.2.1]octane-3,4,5-tricarboxylic acid, 6-(cyclohexanecarboxylate)], for which the IC50 is < 0.1 µM.

As for `C=C(CC[C@]12O[C@H](C(=O)O)[C@@](O)(C(=O)O)[C@](C(=O)O)(O1)[C@H](OC(=O)NCC)[C@H]2O)[C@@H](OC(C)=O)[C@H](C)Cc1ccccc1` (relative stereo) [Example 66, [1S-[1α(4R*,5S*),3α,4β,5α,6α,7β]] 1-(4-Acetyloxy-5-methyl-3-methylene-6-phenylhexyl)-6-[[(ethylamino)carbonyl]oxy]4,7-dihydroxy-2,8-dioxabicyclo[3.2.1]octane-3,4,5-tricarboxylic acid], the IC50 was < 0.1 µM.

For the compound `C=C(CCC12OC(C(=O)O)C(O)(C(=O)O)C(C(=O)O)(O1)C(OC(C)=O)C2O)C(OC(C)=O)C(C)Cc1ccccc1` (stereo not drawn) [Compound 1 in Example 28, [1S-[1α(4R*,5S*),3α,4β,5α,6α,7β]] 1-(4-Acetyloxy-5-methyl-3-methylene-6-phenylhexyl)-4,6,7-trihydroxy-2,8-dioxabicyclo[3.2.1]octane-3,4,5-tricarboxylic acid, 6-acetate], the IC50 is < 0.1 µM.
